In PMC6940354, “Comparative Assessment of the New PDE7 Inhibitor – GRMS-55 and Lisofylline in Animal Models of Immune-Related Disorders: A PK/PD Modeling Approach” (Pharmaceutical Research, 2020):
Values after ≈ are worked out from the molar mass of the structure shown.

What was measured:
[1] = tested on: TNF-α release from LPS-stimulated whole rat blood; test: Inhibition of LPS-induced TNF-α release in whole rat blood; format: cell-based; settings: LPS 10 mg L^−1, 6 h incubation, compared to LPS-treated control
Experimental: Stimulation of whole rat blood by LPS was performed on 96-well plates. […] Contents of each well (200 μL) consisted of heparinized rat blood containing 10 U heparin mL^−1 diluted with RPMI-1640 medium at a ratio of 1:1 (v/v). All compounds were dissolved in DMSO and added to blood (the final DMSO concentration in blood was 0.5%) 15 min prior to the addition of LPS dissolved in RPMI-1640 medium to achieve the LPS concentration of 10 mg L^−1. Both, LPS and DMSO were also added to control wells at the same concentrations. Additional control samples (for testing baseline TNF-α levels in blood) consisted of DMSO (0.5%) without LPS. The incubation was performed at 37°C in a humidified atmosphere of 5% CO2 in an MCO-5 AC-PE incubator (PHCbi, Japan). After 6 h of incubation, the plates were centrifuged for 10 min using PlateFuge MicroCentrifuge (Benchmark Scientific, USA). The individual plasma samples were harvested and stored at −80°C until analysis.
(§1) TNF-α levels in LPS-stimulated rat blood in vitro and in rat plasma samples from the in vivo studies were analyzed by the Rat TNF-α Quantikine ELISA Immunoassay Kit (R&D Systems, USA) according to the manufacturer’s instructions. The assay was linear at the range of 12.5–800 pg mL^−1. Levels of TNF-α in mice serum were measured by ELISA Kits for Tumor Necrosis Factor Alpha (Cloud-Clone Corp., USA). This assay was linear at the range of 15.6–1000 pg mL^−1. Absorbance was measured at 450 nm using a POLARstar Omega multi-mode microplate reader (BMG LABTECH, Germany).

[2] = tested on: TNF-α plasma levels in male Wistar rats with LPS-induced endotoxemia; test: LPS-induced endotoxemia in rats, PK/PD model of plasma TNF-α; format: in vivo, rat
Experimental: Male Wistar rats were implanted with catheters (SAI Infusion Technologies, USA) into the jugular vein and after a two-day recovery period they were administered with LPS dissolved in saline at a dose of 1 mg kg ^−1 into the tail vein simultaneously with one of the investigated compounds. […] The doses of the compounds were selected based on the literature data or results of our previous experiments. Each control group received LPS at the same IV dose and an appropriate volume of corresponding vehicle. […] The plasma samples were collected and stored at −80°C until analysis.
as §1
PK/PD and PK/PD/DIS progression models were developed considering the mechanism of action of the investigated compounds, the mechanisms of disease progression in the case of CIA, and the subsequent stages leading to TNF-α release in the case of LPS-induced endotoxemia. Various numbers of transit compartments were tested during development of the models, and the final models were chosen based on the goodness-of-fit criteria, such as AIC, SBC, a visual inspection of the fitting, and parameter precision. Estimated values of pharmacokinetic parameters were fixed during PK/PD and PK/PD/DIS progression model fitting procedures. […] PK/PD and PK/PD/DIS progression modeling were performed in ADAPT 5 software using the weighted least squares algorithm.
Therefore, as a result of PK/PD analysis, three sets of pharmacodynamic parameters were obtained based on the data from the three individual experiments.
The applied model is a modified indirect response model ([19]) with implemented transit compartments (T1-T4) that describe the delay of the observed pharmacodynamic response. In this scheme τ is the mean transit time, kin is the time limited (from 0 to tlag) zero-order rate constant of production of a TNF-α precursor (e.g., TNF-α mRNA). Different numbers of transit compartments were tested during the model development, but the best fit was observed using four transit compartments.
All Imax values were fixed to 1.

[3] = tested on: LPS-stimulated murine macrophages (RAW263.7 cells); set-up: method as in PMID 14998551; settings: cited from earlier work
[4] = tested on: TNF-α release in mice model of endotoxemia; set-up: method as in PMID 20389149; settings: mice model of endotoxemia ref [19]; cited from earlier work
[5] = tested on: cAMP degradation; set-up: method as in PMID 28730281; settings: rats, cAMP as a marker of pharmacological response ref [9]; cited from earlier work
[6] = tested on: PDE4; set-up: method as in PMID 14998551; settings: ref [31]; read-out: IC50PDE4; cited from earlier work
[7] = tested on: LPS-stimulated human PBMC; set-up: method as in PMID 14998551; settings: LPS-stimulated human PBMC ref [31]; read-out: IC50, TNF-α production; cited from earlier work

SMILES	Reduction of TNF-α levels in LPS-stimulated whole rat blood (result in words) [1]	IC50 ([2]; Rattus norvegicus, iv, read-out: IC50, concentration of compound producing 50% of Imax (inhibition of TNF-α release in vivo), Final estimate (CV%), plasma concentration, PK/PD model, Imax fixed to 1, male Wistar rats, LPS 1 mg kg^−1 IV, IV GRMS-55 20, rolipram 5, (±)-LSF and PTX 40 and 80 mg kg^−1) [µg/mL]	activity in inhibiting TNF-α release in vivo, times lower than that of rolipram ([2]; ratio of IC50 values to rolipram)	TNF-α production (result in words) ([3]; RAW263.7 cells, concentrations of 500 and 1000 μM ref [31])	IC50 value for the inhibition of TNF-α release [4] [µg/mL]	IC50 value for the inhibition of cAMP degradation [5] [µg/mL]	IC50 [6] [nM]	IC50 ([3]; LPS-stimulated murine macrophage cell line ref [31], read-out: IC50, TNF-α production) [nM]	IC50 [7] [nM]
CC(=O)CCCCn1c(=O)c2c(ncn2C)n(C)c1=O [PTX, Pentoxifylline]	significantly and with similar potency reduced	14 (≈ 50.3 µM)	~ 39 times	significantly inhibited TNF-α production	0.47	4.48	–	–	–
COc1ccc(C(=O)Nc2c(Cl)cncc2Cl)cc1OC1CCCC1 [RP73401]	–	–	–	–	–	–	1	2.7	3.3
C[C@@H](O)CCCCn1c(=O)c2c(ncn2C)n(C)c1=O [R-(−)-LSF]	–	–	–	–	1.61	–	–	–	–
